# In patent publication USRE30633E, “3-Lower alkylcarbamylsulfonamido-4-phenylaminopyridines, n-oxides, derivatives thereof and pharmaceutical compositions containing same” (A. Christiaens Societe Anonyme, priority 1974, dated 1981):
# Tests used:
# paw of rats = assay: Pharmacological test for anti-inflammatory properties (carrageenan rat paw swelling); assay type: in vivo; details: oral 1 hour before carrageenan (0.05 ml of 1%), swelling 4 hours after injection by plethysmography, dose not given
# Experimental: 1. Pharmacological test for anti-inflammatory properties.
# The compounds to be tested are given as freshly prepared solutions or suspensions by oral route 1 hour before injecting the paw of rats with carrageenan which is a known inflammatory agent.
# The inflammatory agent (carrageenan) either in solution or suspension is then injected into the plantar tissue of the right hind paw of each rat, the left paw remaining untreated and serving as control. Each animal receives, for example, 0.05 ml of an aqueous solution containing 1% by weight of carrageenan and 0.9% of sodium chloride.
# 4 hours after the injection of the inflammatory agent, the importance of swelling is determined by plethysmography and is expressed as a percent of the volume of the control paw.
# The anti-inflammatory effect expressed as a percentage of inhibition is obtained by comparison between rats treated with the anti-inflammatory compound and a control group of rats.
# rats = assay: Pharmacological test for diuretic properties (urine volume); assay type: in vivo; details: 50 mg/kg gastric gavage, 25 ml/kg saline s.c., urine collected 4 hours, ml/kg of body weight
# Experimental: 2. Pharmacological tests for diuretic properties Lots of 3 rats weighting 250-300 g have been constituted at random, each of them being submitted to the same treatment. The compound to be tested was administered by .[.gastric gavage at a dose of 50 ml/kg as a solution or a.]. .Iadd.gastric gavage at a dose of 50 mg/kg as a solution or a .[…].suspension in water containing 0.45% of methylcellulose (which is an inert mucilaginous substance). Control animals received only distilled water as a placebo. At the same time, all the animals received 25 ml/kg of physiological saline by subcutaneous injection. The rats were then placed in metabolic cages, each cage containing 3 animals receiving the same treatment. The urines have been collected during 4 hours. […] The diuresis is expressed in ml/kg of body weight.
SMILES,% inhibition of acute oedema (paw of rats),Diuresis (rats)
"CCNC(=O)NS(=O)(=O)c1cnccc1Nc1ccc(Cl)c(Cl)c1 [JDL 475, 3-ethylcarbamylsulfonamido-4-(3',4'-dichloro)-phenylaminopyridine]",79.2%,34.3 mL/kg
"O=C(NS(=O)(=O)c1cnccc1Nc1cccc(C(F)(F)F)c1)c1ccccc1 [C 2129, 3-benzoylsulfonamido-4-(3'-trifluoromethyl)-phenylaminopyridine]",23.2%,30.3 mL/kg
"CCCCNC(=O)NS(=O)(=O)c1cnccc1NC(C)C [JDL 491, 3-butylcarbamylsulfonamido-4-isopropylaminopyridine]",88.0%,25.1 mL/kg
"CC(C)(C)NC(=O)NS(=O)(=O)c1cnccc1Nc1cccc(Cl)c1 [JDL 388, 3-tertiobutylcarbamylsulfonamido-4-(3'-chloro)-phenylaminopyridine]",66.4%,37.0 mL/kg
"CC(C)NC(=O)NS(=O)(=O)c1cnccc1Nc1ccc(Cl)c(C(F)(F)F)c1 [JDL 487, 3-isopropylcarbamylsulfonamido-4-(3'-trifluoromethyl-4'-chloro)-phenylaminopyridine]",20.8%,10.5 mL/kg
"CC(C)NC(=O)NS(=O)(=O)c1cnccc1Nc1ccc(Cl)cc1 [JDL 423, 3-isopropylcarbamylsulfonamido-4-(4'-chloro)-phenylaminopyridine]",64.0%,68.7 mL/kg
"CC(C)NC(=O)NS(=O)(=O)c1cnccc1Nc1ccc(Cl)c(Cl)c1 [JDL 476, 3-isopropylcarbamylsulfonamido-4-(3',4'-dichloro)-phenylaminopyridine]",92.0%,42.1 mL/kg
"CCNC(=O)NS(=O)(=O)c1cnccc1Nc1cc(Cl)cc(Cl)c1 [JDL 473, 3-ethylcarbamylsulfonamido-4-(3',5'-dichloro)-phenylaminopyridine]",41.6%,24.0 mL/kg
"O=C(NC1CCCCC1)NS(=O)(=O)c1cnccc1Nc1cccc(C(F)(F)F)c1 [JDL 364, 3-cyclohexylcarbamylsulfonamido-4-(3'-trifluoromethyl)-phenylaminopyridine]",58.4%,37.7 mL/kg
